Reference: patent US8575107B2, “Clusterin derived peptide” (Compugen Ltd., priority 2008, dated 2013)
Where a SMILES comes first, the peptide text is derived from it.

Legend:
[1] = test system: A549 human non-small cell lung cancer cells
Method: A549 cells were seeded at 6000 cells per well in 150 μl of media (DMEM medium+5% FBS) in a 96 well plate.

[2] = test system: HT29 colorectal adenocarcinoma cells; experiment: MTT assay, growth of HT29 cells treated with CGEN-CL1; format: cell-based
Method: CGEN-CL1 as synthesized in Example 1 was analyzed for its ability to induce growth arrest in various cancer cell lines, such as: breast cancer cell line MCF-7 (Adenocarcinoma, Breast, HTB-22, ATCC), PC3 (Adenocarcinoma, Prostate, CRL-1435, ATCC), A549 (carcinoma, Lung, CCL-185, ATCC), HT-29 (Colorectal Adenocarcinoma, Colon, HTB-38, ATCC) and SK-mel 5 (Melanoma, Skin, HTB70, ATCC).
HT29 cells were seeded at 10,000 cells per well in 150 μl of media (DMEM medium+5% FBS) in a 96 well plate.
CGEN-CL1 (1 mg dissolved in 2500 of Sodium bi-carbonate to a stock concentration of 4 mg/ml) was added to the wells in 500 of medium (final volume of 2000) as detailed in Table 2. The relative growth was normalized to controls where CGEN-CL1 was not added to wells.
(§1) 20 μl of MTT (3-(4,5-Dimethyl-2-thiazolyl)-2,5-diphenyl-2H-tetrazolium bromide) solution (Sigma Cat#M5655, lot#085k5322, 1 gr was dissolved in 200 ml H2O and filtered, giving a final concentration of 5 mg/ml) was added to each well and incubated for 4 hours at 37° C. after which the medium was vacuumed and 100 μl of DMSO was added to each well. Absorbance was measured in an ELISA reader at 492 nm.

[3] = target: T1, recombinant human clusterin (Homo sapiens, UniProt P10909); experiment: BIAcore surface plasmon resonance binding of CGEN-CL1 to clusterin; details: SPR, 312-5000 nM CGEN-CL1, immobilized clusterin
T1 construct: purchased Biovendor RD172034100
T1 sequence (P10909 23-449): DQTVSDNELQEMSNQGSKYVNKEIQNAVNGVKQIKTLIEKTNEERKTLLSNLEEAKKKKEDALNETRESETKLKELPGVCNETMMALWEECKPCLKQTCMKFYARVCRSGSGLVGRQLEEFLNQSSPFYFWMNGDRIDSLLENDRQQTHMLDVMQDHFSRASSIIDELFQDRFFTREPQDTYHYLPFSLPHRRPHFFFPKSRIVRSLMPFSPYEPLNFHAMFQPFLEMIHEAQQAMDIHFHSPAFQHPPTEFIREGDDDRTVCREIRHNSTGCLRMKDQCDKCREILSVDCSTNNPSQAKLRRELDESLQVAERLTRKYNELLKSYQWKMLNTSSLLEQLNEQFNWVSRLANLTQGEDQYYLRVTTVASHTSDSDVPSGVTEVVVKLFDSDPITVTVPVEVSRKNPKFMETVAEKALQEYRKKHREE
Excerpt: The capability of CGEN-CL1 to specifically bind to recombinant Clusterin protein was investigated using the BIACORE technology, measuring protein-protein interaction and binding affinity. The technology is based on surface plasmon resonance (SPR), an optical phenomenon that enables detection of unlabeled interactants in real time. The SPR-based biosensors can be used in determination of active concentration, screening and characterization in terms of both affinity and kinetics.
Peptide-protein interaction was analyzed using surface plasmon resonance. Analysis of the interaction between CGEN-CL1 [SEQ ID NO:1] and recombinant human clusterin (Biovendor, Modrice, Czech republic cat no: RD172034100) was conducted using the BIAcore biosensor (Pharmacia Biosensor, Uppsala, Sweden). Clusterin was immobilized directly to a CM5 sensor chip (2000 resonance units (RU)). Solution containing five different concentrations of CGEN-CL1 [SEQ ID NO:1] (312, 625, 1250, 2500 and 5000 nM) was injected into the sample chamber of the BIACORE device and the interaction was monitored for 5 minutes using surface plasmon resonance.
As a background, the solutions were also injected onto an empty flow cell with no immobilized ligand and the binding levels achieved were subtracted. Data were analyzed using BIAevaluation software.

[4] = test system: MCF-7 breast cancer cell lines; experiment: MTT assay, CGEN-CL1 and/or paclitaxel on MCF-7 cells; format: cell-based
Method: as §1
A549, PC3 and MCF7 cells were seeded at 6000, 8000 and 10,000 cells per well respectively in 150 μl of media (DMEM medium+5% FBS) in 96 well plates.
Paclitaxel (Sigma T7402, Lot. 036k1217, Mw 853.9, 5 mg dissolved in 585 μl DMSO to a stock concentration of 10 mM, stored at −20° C.) and/or CGEN-CL1 (1 mg dissolved in 250 μl of sodium bi-carbonate to a stock concentration of 4 mg/ml) were added to the wells in 25 μl of medium (final volume of 200 μl) as detailed in Table 3. The relative growth was normalized to controls where neither paclitaxel nor CGEN-CL1 was added to wells.
An MTT assay was performed as described above in Example 2.

[5] = test system: breast cancer cell line MCF-7
Method: MCF7 cells were seeded at 10,000 cells per well in 150 μl of media (DMEM medium+5% FBS) in a 96 well plate.

[6] = test system: A549 human non-small cell lung cancer cells; experiment: In vivo A549 mouse xenograft model, CGEN-CL1 with paclitaxel; set-up: species or system Balb/c Nu/Nu female mice; details: A549 tumor bearing BALB/c nu/nu mice; CGEN-CL1 sc daily around tumor + paclitaxel 15 mg/kg IP; vs paclitaxel and vehicle
Method: In order to test the in-vivo activity of CGEN-CL1, Balb/c Nu/Nu female mice (10 in each group) were inoculated with 5×10^6 A549 human non-small cell lung cancer cells. Treatment was initiated when tumors reached 400-500 mm^3. One group received 15 mg/kg of paclitaxell (IP once every three days) and CGEN-CL1 [SEQ ID NO:1] (daily injected sub-cutaneously (sc) at the surrounding of the tumor) whereas the second group received paclitaxel and saline (at the same dose and route of administration). Tumor volume was measured every three days.

CC[C@H](C)[C@H](NC(=O)[C@H](CCCNC(=N)N)NC(=O)[C@H](CC(=O)O)NC(=O)CNC(=O)[C@H](CC(N)=O)NC(=O)[C@H](CCSC)NC(=O)[C@H](Cc1c[nH]c2ccccc12)NC(=O)[C@H](Cc1ccccc1)NC(=O)[C@H](Cc1ccc(O)cc1)NC(=O)[C@H](Cc1ccccc1)NC(C)=O)C(=O)N[C@@H](CC(=O)O)C(=O)N[C@@H](CO)C(=O)N[C@@H](CC(C)C)C(=O)N[C@@H](CC(C)C)C(=O)N[C@@H](CCC(=O)O)C(=O)N[C@@H](CC(N)=O)C(=O)N[C@@H](CC(=O)O)C(=O)N[C@@H](CCCNC(=N)N)C(=O)N[C@@H](CCC(N)=O)C(=O)N[C@@H](CCC(N)=O)C(=O)N[C@H](C(N)=O)[C@@H](C)O [CGEN-CL1] (Ac-FYFWMNGDRIDSLLENDRQQT-NH2)
EC50 [1]: 0.95 nM | growth inhibition as revealed by cellular viability [2]: evoked growth inhibition | binding to parent protein clusterin [3]: binds to its parent protein clusterin in a dose dependent manner | Relative Growth ([4]; CGEN-CL1 7.1 nM + Paclitaxel 2.25 nM): 0.62 | Relative Growth ([4]; CGEN-CL1 7.1 nM + Paclitaxel 30.00 nM): 0.31 | Relative Growth ([4]; CGEN-CL1 7.1 nM alone): 0.68 | Relative Growth ([4]; CGEN-CL1 22.3 nM + Paclitaxel 2.25 nM): 0.53 | Relative Growth ([4]; CGEN-CL1 22.3 nM + Paclitaxel 30.00 nM): 0.28 | Relative Growth ([4]; CGEN-CL1 22.3 nM alone): 0.61 | Relative Growth ([4]; CGEN-CL1 63.2 nM + Paclitaxel 2.25 nM): 0.46 | Relative Growth ([4]; CGEN-CL1 63.2 nM + Paclitaxel 30.00 nM): 0.24 | Relative Growth ([4]; CGEN-CL1 63.2 nM alone): 0.48 | Relative Growth ([4]; CGEN-CL1 185.9 nM + Paclitaxel 2.25 nM): 0.45 | Relative Growth ([4]; CGEN-CL1 185.9 nM + Paclitaxel 30.00 nM): 0.25 | Relative Growth ([4]; CGEN-CL1 185.9 nM alone): 0.49 | Relative Growth ([4]; CGEN-CL1 557.6 nM + Paclitaxel 2.25 nM): 0.42 | Relative Growth ([4]; CGEN-CL1 557.6 nM + Paclitaxel 30.00 nM): 0.23 | Relative Growth ([4]; CGEN-CL1 557.6 nM alone): 0.46 | effect of timing on cell growth ([4]; CGEN-CL1 added 24 hours after 30 nM paclitaxel vs concomitantly): need for lower concentrations of CGEN-CL1 to achieve the same effect | effect on growth inhibition when given in combination ([4]; CGEN-CL1 and paclitaxel in combination): synergistic effect | CGEN-CL1 concentration giving further inhibition of cell proliferation (as little as) ([4]; at 30 nM Paclitaxel): 7.1 nM | EC50 [5]: 56 nM | concentration achieving maximal growth inhibition ([5]; MCF-7 breast cancer cells, MTT): approximately 900 nM | concentration with a growth inhibiting effect (as little as) ([5]; MCF-7 breast cancer cells, MTT): 50 nM | reduction in tumor volume [6]: 25-30%
